Reference: PubChem BioAssay (NCI)
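All cell lines were grown in 96-well plates and treated with compound for 48 hours. GI50 is the concentration that inhibits growth by half. TGI marks complete inhibition of growth.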

Assays:
Assay in all cases: growth of human tumour cells (NCI), 48 h
M14 melanoma = system: M14 melanoma
NCI-H460 lung = system: NCI-H460 lung
HCC-2998 colon = system: HCC-2998 colon
NCI-H23 lung = system: NCI-H23 lung
HCT-116 colon = system: HCT-116 colon
SW-620 colon = system: SW-620 colon
KM12 colon = system: KM12 colon
U251 CNS = system: U251 CNS
MALME-3M melanoma = system: MALME-3M melanoma
HT29 colon = system: HT29 colon
MOLT-4 leukemia = system: MOLT-4 leukemia
SNB-75 CNS = system: SNB-75 CNS
K-562 leukemia = system: K-562 leukemia
A498 renal = system: A498 renal
IGROV1 ovarian = system: IGROV1 ovarian
MDA-MB-435 = system: MDA-MB-435
A549 NSCLC = system: A549 NSCLC
NCI-H522 lung = system: NCI-H522 lung
TK-10 renal = system: TK-10 renal
MCF7 breast = system: MCF7 breast
HS 578T breast = system: HS 578T breast
OVCAR-5 ovarian = system: OVCAR-5 ovarian
SK-MEL-2 melanoma = system: SK-MEL-2 melanoma
RXF 393 renal = system: RXF 393 renal
HCT-15 colon = system: HCT-15 colon
MDA-MB-231 breast = system: MDA-MB-231 breast
SK-OV-3 ovarian = system: SK-OV-3 ovarian
SK-MEL-28 melanoma = system: SK-MEL-28 melanoma
SF-268 CNS = system: SF-268 CNS
SK-MEL-5 melanoma = system: SK-MEL-5 melanoma
SF-295 CNS = system: SF-295 CNS
ACHN renal = system: ACHN renal
UACC-62 melanoma = system: UACC-62 melanoma
COLO 205 colon = system: COLO 205 colon
BT-549 breast = system: BT-549 breast
HOP-92 NSCLC = system: HOP-92 NSCLC
OVCAR-8 ovarian = system: OVCAR-8 ovarian
PC-3 prostate = system: PC-3 prostate
SNB-19 CNS = system: SNB-19 CNS
EKVX NSCLC = system: EKVX NSCLC
DU-145 prostate = system: DU-145 prostate
SN12C renal = system: SN12C renal
HOP-62 NSCLC = system: HOP-62 NSCLC
OVCAR-3 ovarian = system: OVCAR-3 ovarian
CCRF-CEM leukemia = system: CCRF-CEM leukemia
OVCAR-4 ovarian = system: OVCAR-4 ovarian
HL-60(TB) leukemia = system: HL-60(TB) leukemia
SR leukemia = system: SR leukemia
SF-539 CNS = system: SF-539 CNS
786-0 renal = system: 786-0 renal
T-47D breast = system: T-47D breast
LOX IMVI melanoma = system: LOX IMVI melanoma
UACC-257 melanoma = system: UACC-257 melanoma
NCI/ADR-RES ovarian = system: NCI/ADR-RES ovarian
NCI-H226 lung = system: NCI-H226 lung
RPMI-8226 leukemia = system: RPMI-8226 leukemia
UO-31 renal = system: UO-31 renal

SMILES: COC(=O)C(C)NP(=O)(OCc1ccc(Cn2cnc3c(N)ncnc32)cc1)Oc1ccccc1 (centres undefined)
- GI50 (M14 melanoma): 55.4 µM
- TGI (M14 melanoma): > 100 µM
- GI50 (NCI-H460 lung): 67.9 µM
- TGI (NCI-H460 lung): > 100 µM
- GI50 (HCC-2998 colon): 27.7 µM
- TGI (HCC-2998 colon): 84.4 µM
- GI50 (NCI-H23 lung): 36.5 µM
- TGI (NCI-H23 lung): > 100 µM
- GI50 (HCT-116 colon): 26 µM
- TGI (HCT-116 colon): 63.4 µM
- GI50 (SW-620 colon): > 83.5 µM
- TGI (SW-620 colon): > 100 µM
- GI50 (KM12 colon): 25.2 µM
- TGI (KM12 colon): > 96.1 µM
- GI50 (U251 CNS): 37.3 µM
- TGI (U251 CNS): > 100 µM
- GI50 (MALME-3M melanoma): 20.8 µM
- TGI (MALME-3M melanoma): 57 µM
- GI50 (HT29 colon): > 67.8 µM
- TGI (HT29 colon): > 100 µM
- GI50 (MOLT-4 leukemia): 32.2 µM
- TGI (MOLT-4 leukemia): > 100 µM
- GI50 (SNB-75 CNS): 40.1 µM
- TGI (SNB-75 CNS): > 100 µM
- GI50 (K-562 leukemia): > 93.1 µM
- TGI (K-562 leukemia): > 100 µM
- GI50 (A498 renal): > 100 µM
- TGI (A498 renal): > 100 µM
- GI50 (IGROV1 ovarian): 39.1 µM
- TGI (IGROV1 ovarian): > 100 µM
- GI50 (MDA-MB-435): 43 µM
- TGI (MDA-MB-435): > 100 µM
- GI50 (A549 NSCLC): > 84.2 µM
- TGI (A549 NSCLC): > 100 µM
- GI50 (NCI-H522 lung): 28.4 µM
- TGI (NCI-H522 lung): > 69 µM
- GI50 (TK-10 renal): > 100 µM
- TGI (TK-10 renal): > 100 µM
- GI50 (MCF7 breast): 36.8 µM
- TGI (MCF7 breast): > 100 µM
- GI50 (HS 578T breast): 15.5 µM
- TGI (HS 578T breast): 49.7 µM
- GI50 (OVCAR-5 ovarian): > 100 µM
- TGI (OVCAR-5 ovarian): > 100 µM
- GI50 (SK-MEL-2 melanoma): > 73.9 µM
- TGI (SK-MEL-2 melanoma): > 100 µM
- GI50 (RXF 393 renal): 81.5 µM
- TGI (RXF 393 renal): > 100 µM
- GI50 (HCT-15 colon): > 100 µM
- TGI (HCT-15 colon): > 100 µM
- GI50 (MDA-MB-231 breast): > 63.4 µM
- TGI (MDA-MB-231 breast): > 100 µM
- GI50 (SK-OV-3 ovarian): > 100 µM
- TGI (SK-OV-3 ovarian): > 100 µM
- GI50 (SK-MEL-28 melanoma): 30.4 µM
- TGI (SK-MEL-28 melanoma): > 84.9 µM
- GI50 (SF-268 CNS): 36.9 µM
- TGI (SF-268 CNS): > 100 µM
- GI50 (SK-MEL-5 melanoma): 6.39 µM
- TGI (SK-MEL-5 melanoma): 33.4 µM
- GI50 (SF-295 CNS): > 78.9 µM
- TGI (SF-295 CNS): > 100 µM
- GI50 (ACHN renal): > 100 µM
- TGI (ACHN renal): > 100 µM
- GI50 (UACC-62 melanoma): 28.6 µM
- TGI (UACC-62 melanoma): > 94.1 µM
- GI50 (COLO 205 colon): > 91.6 µM
- TGI (COLO 205 colon): > 100 µM
- GI50 (BT-549 breast): 24.2 µM
- TGI (BT-549 breast): 72.5 µM
- GI50 (HOP-92 NSCLC): 29.8 µM
- TGI (HOP-92 NSCLC): > 100 µM
- GI50 (OVCAR-8 ovarian): 76.8 µM
- TGI (OVCAR-8 ovarian): > 100 µM
- GI50 (PC-3 prostate): 31.3 µM
- TGI (PC-3 prostate): > 100 µM
- GI50 (SNB-19 CNS): > 64.2 µM
- TGI (SNB-19 CNS): > 100 µM
- GI50 (EKVX NSCLC): > 81.2 µM
- TGI (EKVX NSCLC): > 100 µM
- GI50 (DU-145 prostate): > 100 µM
- TGI (DU-145 prostate): > 100 µM
- GI50 (SN12C renal): 73.4 µM
- TGI (SN12C renal): > 100 µM
- GI50 (HOP-62 NSCLC): > 68.6 µM
- TGI (HOP-62 NSCLC): > 100 µM
- GI50 (OVCAR-3 ovarian): 34.7 µM
- TGI (OVCAR-3 ovarian): > 82.1 µM
- GI50 (CCRF-CEM leukemia): 50 µM
- TGI (CCRF-CEM leukemia): > 100 µM
- GI50 (OVCAR-4 ovarian): > 100 µM
- TGI (OVCAR-4 ovarian): > 100 µM
- GI50 (HL-60(TB) leukemia): 79.9 µM
- TGI (HL-60(TB) leukemia): > 100 µM
- GI50 (SR leukemia): > 100 µM
- TGI (SR leukemia): > 100 µM
- GI50 (SF-539 CNS): > 100 µM
- TGI (SF-539 CNS): > 100 µM
- GI50 (786-0 renal): > 100 µM
- TGI (786-0 renal): > 100 µM
- GI50 (T-47D breast): > 56.7 µM
- TGI (T-47D breast): > 100 µM
- GI50 (LOX IMVI melanoma): 21.4 µM
- TGI (LOX IMVI melanoma): 53.8 µM
- GI50 (UACC-257 melanoma): > 100 µM
- TGI (UACC-257 melanoma): > 100 µM
- GI50 (NCI/ADR-RES ovarian): > 100 µM
- TGI (NCI/ADR-RES ovarian): > 100 µM
- GI50 (NCI-H226 lung): > 93.5 µM
- TGI (NCI-H226 lung): > 100 µM
- GI50 (RPMI-8226 leukemia): 17.1 µM
- TGI (RPMI-8226 leukemia): 65.3 µM
- GI50 (UO-31 renal): > 100 µM
- TGI (UO-31 renal): > 100 µM
